Assay results reported in US20130156768A1, “COMBINATION OF ANTI-CTLA4 ANTIBODY WITH BRAF INHIBITORS FOR THE SYNERGISTIC TREATMENT OF PROLIFERATIVE DISEASES” (Bristol-Myers Squibb Company, priority 2010, published 2013).

Key:
[1] = system: OVA-specific T cells; experiment: Model of antigen-induced T-cell proliferation (OVA adoptive transfer, OVA-specific tetramer staining); assay type: in vivo, C57BL6 mice; conditions: CTLA-4 mAb 20 mg/kg days 1, 3; BRAF inhibitor 100 mg/kg days 1, 3, 5; erlotinib 100 mg/kg p.o. daily days 1-5; FIG. 3
Method: The effect of the combination of a BRAF inhibitor and CTLA-4 mAb was evaluated in a model of antigen-induced T-cell proliferation. In this model, T cells specific for the antigen ovalbumin (OVA) were adoptively transferred into naive C57BL6 mice on study day −1. On Study Day 0, animals were challenged with 250 ug of an OVA peptide (i.v.). Animals were reandomized and divided into groups of 5. Treatments were administered as follows: CTLA-4 mAb—20 mg/kg—study days 1 and 3; Methyl {5-[2-chloro-2-methylphenyl)-1-hydroxy-3-oxo-2,3-dihydro-1H-isoindol-1-yl]-1H-benzimidazol-2-yl}carbamate—100 mg/kg—study days 1, 3, and 5. In addition, another study group received erlotinib (TARCEVA®) daily at 100 mg/kg, p.o. from study days 1 through 5. Combination groups consisted of Compound Ia and CTLA-4 mAb or erlotinib+CTLA-4 mAb following the same schedules. Control animals received the OVA challenge and no further treatment. Expansion of OVA-specific T cells was measured prior to OVA challenge and on days 2, 5, 7 and 16 by OVA-specific tetramer staining.

[2] = system: CT26 colon carcinoma; experiment: Antitumor activity in the murine CT26 colon carcinoma model; assay type: in vivo; conditions: for % TGI: CT26
Excerpt: Thus, there was an interest in determining whether a potentiation of an antitumor immune response could be achieved by the combination of a CTLA-4 blocking mAb and a BRAF inhibitor in a murine CT26 colon carcinoma model.
Pharmacology studies are currently being conducted in support of the proposed clinical trial evaluating the antitumor activity of the BRAF inhibitor Methyl {5-[2-chloro-2-methylphenyl)-1-hydroxy-3-oxo-2,3-dihydro-1H-isoindol-1-yl]-1H-benzimidazol-2-yl}carbamate, and ipilimumab in subjects with advanced melanoma. Efficacy studies were conducted in the CT26 colon carcinoma, a tumor model sensitive to CTLA-4 blockade.
Two different combination schedules were evaluated, concurrent and sequential. In the concurrent setting, Methyl {5-[2-chloro-2-methylphenyl)-1-hydroxy-3-oxo-2,3-dihydro-1H-isoindol-1-yl]-1H-benzimidazol-2-yl}carbamate (100 mg/kg, p.o.) was administered every other day for […] while CTLA-4 mAb (20 mg/kg, i.p.) was dosed every 4 days for 3 doses starting on day 5. In the sequential setting, Methyl {5-[2-chloro-2-methylphenyl)-1-hydroxy-3-oxo-2,3-dihydro-1H-isoindol-1-yl]-1H-benzimidazol-2-yl}carbamate (100 mg/kg, p.o.) was dosed every other day for 4 doses from day 4-10 while CTLA-4 mAb (20 mg/kg, i.p.) was dosed every 4 days for 3 doses starting on day 11. Control groups consisted of each agent dosed in combination with vehicle control following the same schedule.

[3] = system: OVA-specific T cells; experiment: Second study in the OVA adoptive transfer model (OVA-specific T cell responses); assay type: in vivo, murine; conditions: agent added to CTLA-4 mAb, FIG. 5
Excerpt: In addition, combination of both agents synergistically expanded antigen-specific T cells when dosed concurrently. The effect of this promising combination was further investigated in a) a tumor model sensitive to CTLA-4 blockade (SA1N fibrosarcoma); b) in the antigen (OVA)-specific T cell model to assess the effect of Methyl {5-[2-chloro-2-methylphenyl)-1-hydroxy-3-oxo-2,3-dihydro-1H-isoindol-1-yl]-1H-benzimidazol-2-yl}carbamate at different dose levels and compared its activity to another BRAF inhibitor (EXT-000153, Genentech) and EVRI.
Previously, the unexpected expansion of antigen-specific T cells with the use of Methyl {5-[2-chloro-2-methylphenyl)-1-hydroxy-3-oxo-2,3-dihydro-1H-isoindol-1-yl]-1H-benzimidazol-2-yl}carbamate+CTLA-4 mAb in an OVA adoptive transfer model was observed (see Example 2). Thus, a second study was designed to confirm these initial observations to determine the dose effect of Methyl {5-[2-chloro-2-methylphenyl)-1-hydroxy-3-oxo-2,3-dihydro-1H-isoindol-1-yl]-1H-benzimidazol-2-yl}carbamate and to determine whether this phenomenon could also be elicited by other RAF inhibitors. In addition, EVRI, an EGFR/VEGFR inhibitor which inhibits the MAPK pathway was also included in this experiment.

[4] = system: SA1N fibrosarcoma; experiment: Antitumor activity in the SA1N fibrosarcoma tumor model; assay type: in vivo
Method: In addition, combination of both agents synergistically expanded antigen-specific T cells when dosed concurrently.
In the SA1N tumor model, the effect of the combination of both agents was investigated under either a concurrent dosing regimen or a sequential schedule.
Sa1N tumors were implanted s.c. and treatments were administered as follows: Methyl {5-[2-chloro-2-methylphenyl)-1-hydroxy-3-oxo-2,3-dihydro-1H-isoindol-1-yl]-1H-benzimidazol-2-yl}carbamate, […], 20 mg/kg, Q4D×3, starting on day 17.

Row | SMILES | OVA tetramer response (expansion of OVA-specific T cells) [1] | % TGI ([2]; concurrent schedule, Day 26, BRAF inhibitor 100 mg/kg p.o. every other day x7 from day 4, CTLA-4 mAb 20 mg/kg i.p. every 4 days x3 from day 5) | % TGI ([2]; sequential schedule, day 26, BRAF inhibitor 100 mg/kg p.o. every other day x4 day 4-10, CTLA-4 mAb 20 mg/kg i.p. every 4 days x3 from day 11) | complete regressions (CR) ([2]; CT-26 colon carcinoma model) | effect on the OVA-specific T cell expansion elicited by CTLA-4 mAb [3] | toxicity of extended dosing ([4]; SA1N tumor model, 7 doses used in the concurrent regimen) | complete regressions ([4]; SA1N, sequential treatment: BRAF inhibitor 100 mg/kg Q2Dx4 from day 10, CTLA-4 mAb 20 mg/kg Q4Dx3 from day 17)
1 | C#Cc1cccc(Nc2ncnc3cc(OCCOC)c(OCCOC)cc23)c1 [erlotinib, reference compound] | decreased the response |  |  |  |  |  | 
2 | COC(=O)Nc1nc2cc(C3(O)c4ccccc4C(=O)N3c3cc(Cl)ccc3C)ccc2[nH]1 (centres unmarked) | effect similar to CTLA-4 mAb | 70% | 77% | 1 CR | enhanced CTLA-4 blockade OVA-specific T cell expansion in a dose-related manner | toxic | no regression
